Reference: US7375125B2, “Melanocortin-4 receptor binding compounds and methods of use thereof” (Ore Pharmaceuticals, Inc., priority 1999, dated 2008)
Structures can show the parent of a compound that is named as a salt.

System: lean C57BL/6J mice
Assay: In vivo assay for MC4-R antagonist activity: food intake of food deprived lean mice treated with MT II
Conditions: 15 nmol intracerebroventricular prior to MT II 0.05 nmol, six hour period (FIGS. 2, 3)
Description: The following in vivo assay was used to test the effects of MC4-R antagonists on mice.
Male lean C57BL/6J mice were individually housed in macrolon cages (22±2 C.°; 12:12 h light/dark cycle with lights off at 6 pm). Tap water and mouse chow diet were given ad libitum. Mice were stereotaxically implanted with a chronic guide cannula aimed to the third ventricle (intracerabroventricular) one week prior to testing.
In this experiment, food deprived lean mice were injected intracerabroventricularly with either Compound N or Compound O, at a dose of 15 nmol prior to injection of MT II at the dose of 0.05 nmol.

SMILES	effect on food intake of mice treated with the MC4-R agonist MT II
c1ccc(C2=NCCCN2)c(SCc2cccc3ccccc23)c1 [O, 2-[2-(Naphthalen-1-ylmethylsulfanyl)-phenyl]-1,4,5,6-tetrahydro-pyrimidine; hydrochloride]	did not significantly effect the food intake
COc1ccc([N+](=O)[O-])cc1CSc1ccccc1C1=NCCCN1 [N, 2-[2-(2-Methoxy-5-nitro-benzylsulfanyl)-phenyl]-1,4,5,6-tetrahydro-pyrimidine; hydrobromide]	partially reverses the effect
